Here are results for four molecules from publication PMC5698418 (Nature Communications, 2017).

Substitutions are numbered along the chain they refer to. Numbers in names are those of the source.

Series [1] deals with Arc protein. Put plainly: Arc protein half-life after cycloheximide block in primary cortical neurons. Format: cell-based, mouse. Conditions: BDNF 4 h, then CHX plus oxamflatin; vehicle baseline ~47 min. The procedure: Each compound was tested at a concentration of 16.7 µM and in combination with BDNF or alone. Arc mRNA level induced by just BDNF was included in each experiment as a reference. Bars represent mean fold-change (f.c.) normalized to Arc expression measured in untreated cultures and each red point represents fold-change for an individual biological replicate (n = 4). d Primary cortical neurons were treated with BDNF for 4 h to induce Arc expression at which point protein synthesis was blocked by direct addition to culture media of cycloheximide (CHX, 50 µg ml^−1) in presence of vehicle or oxamflatin (16.7 µM). […] It is left out because the vehicle is a control and not a substance.
Specifically, we stimulated the cells with BDNF for 4 h to promote accumulation of Arc protein and then added CHX to block all de novo protein translation. Importantly, cultures treated this way were divided in two groups—one to which oxamflatin was added at the same time as CHX and another that was treated with the vehicle only (baseline measure). […] This experiment provided clear evidence that the impact of oxamflatin on Arc protein abundance is, at least in part, the result of a decrease in the rate of Arc protein degradation; however, a mechanistic explanation of how this KDAC inhibitor is modulating the turnover of Arc protein remained elusive at this point.

The subject of series [2] is Arc puncta in dendrites of primary cortical neurons. Put plainly: Arc puncta along Map2-labeled dendrites (immunocytochemistry). The class given is cell-based, mouse. Conditions: 16.7 µM with BDNF, vs untreated and BDNF alone; for BDNF: BDNF alone vs untreated. The source says:
Chemical structure of each compound is presented on top. b Graphs show mean (n = 5) Arc/β-actin ratio (±SEM) for cells treated as in a. […] Tukey’s HSD post hoc test, *p < 0.05; **p < 0.01, ***p < 0.005; ****p < 0.0001. […] Representative captures of DIV14 mouse primary cortical neurons from each experimental condition co-immunostained for Arc (red fluorophore) and Map2 (green fluorophore). White arrowheads show examples of discrete Arc puncta. […] Tukey’s HSD post hoc test, *p < 0.05; ***p < 0.005; ****p < 0.0001
Indirect immunofluorescence detection of antigens was carried out using cortical neurons cultured on poly-L-lysine/laminin-coated coverslips in 24-well plates at a density of 0.1 × 10^7 per well. After experimental treatment, cells were washed twice with PBS and fixed for 30 min at room temperature with 4% paraformaldehyde in PBS. After fixation, cells were washed twice with PBS, permeabilized with PBST (PBS + 0.25% Triton X-100) for 20 min, blocked in blocking solution (PBS + 5% normal goat serum) for another 30 min, and finally incubated overnight at 4 °C with the first primary antibody in blocking solution. The next day, coverslips were extensively washed with PBS and incubated for 2 h at room temperature in the appropriate fluorophore-conjugated secondary antibody solution (Alexa 488- or Alexa 594-conjugated secondary antibody (Molecular Probes, Invitrogen) in blocking solution). After washing with PBS, the coverslips were incubated again overnight in primary antibody solution for the second antigen, and the procedure for conjugation of the fluorophore-conjugated secondary antibody was repeated as above. Finally, cell nuclei were counterstained with 4′,6-diamidino-2-phenylindole (DAPI), and coverslips were mounted on glass slides with ProLong Antifade reagent (Invitrogen).
(§1) Quantification of surface GluA1 puncta was performed according to the following strategy. First, overlapping digital images of GluA1 and Map2 immunostainings were collected using a Zeiss AxioObserver Z1 inverted microscope and ×63 oil immersion objective. Second, thresholding and segmentation based on the Map2 images was used to remove GluA1 signals outside of dendritic processes. Importantly, the same background/foreground cutoff threshold was used for images of all experimental conditions. Third, the length of dendrites for each image set was measured and recorded. Finally, distinct GluA1 foreground objects along dendrites >5 pixels were counted using the particle analysis tool in ImageJ and presented as the average number of GluA1 puncta per µm of dendrite length for each experimental condition.

Series [3] concerns BDNF-induced nuclear Arc expression in primary cortical neurons. Put plainly: Chemogenomic screen: high-content image-based assay of BDNF-induced nuclear Arc expression (96-well). The class given is cell-based, mouse. The method, boiled down: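 Nuclear Arc immunofluorescence is quantified automatically within an acetyl-H3K9-defined nuclear mask from ×40 images. Cultures are DIV13 mouse forebrain cortical neurons seeded at 30,000 per well and exposed to BDNF plus compound at a final 16.7 µM, with triplicate biological replicates.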

The subject of series [4] is Arc protein. Put plainly: Western blot of total Arc protein in primary cortical neurons. The class given is cell-based, mouse. In general terms: In western blotting, separated proteins are transferred to a membrane and probed.
Experimental: Forebrains of E16.5 C57BL/6 mouse embryos were dissected and then dissociated in trypsin solution for 15 min followed by three washes with phosphate-buffered saline (PBS). Single-cell suspension was achieved by gentle pipet trituration. Neurons were seeded in poly-L-lysine/laminin-coated six-well plates at a density of 2 × 10^6 per well and maintained in neurobasal medium containing B27 supplement (2%, Invitrogen, Grand Island, NY), penicillin (50 units ml^−1, Invitrogen), streptomycin (50 µg ml^−1, Invitrogen), and glutamine (1 mM, Sigma). For experiments involving BDNF (EMD Millipore Corps, Billerica, MA), the stock solution (2 ng µl^−1 in water) was added directly to the culture medium at a final concentration of 100 ng ml^−1 for the indicated period of time.
The following procedure was used to quantify western blots. First, equal quantity of protein lysate was analyzed by SDS–PAGE for each biological replicate. Second, the exposure time of the film to the ECL chemiluminescence was the same for each biological replicate. Third, all the exposed films were scanned on a Brother MFC-J485DW scanner in grayscale at a resolution of 300 dpi. Fourth, the look-up table (LUT) of the scanned tiff images was inverted and the intensity of each band was individually measured using the selection tool and the histogram function in Adobe Photoshop CC 2015 software. […]
The subject of the next series is acetyl-H3K9. Put plainly: Acetyl-H3K9 immunofluorescence in neuronal nuclei (multiplexed in screen). Format: cell-based, mouse. Conditions: screen, 16.7 µM. As for the experimental part: To increase the throughput of our pharmacological screening for modulators of Arc, the above mentioned assay was adapted to cultures of mouse primary cortical neurons in 96-well plates.
Screening of compounds in the chemogenomic library was carried out using DIV13 primary forebrain cortical neurons cultured on poly-L-lysine/laminin-coated 96-well plates (Ibidi USA, Madison, WI). Cells were seeded at a density of 30,000 cells per well and treated with the compound library and BDNF according to the experimental design presented in Fig. 3a. After experimental treatment, cells were processed for Arc and acetyl-H3K9 immunocytochemistry according to the protocol described above. Both antigens (Arc and acetyl-H3K9) were imaged using an IN Cell Analyzer 6000 imaging system and a ×40 objective. […] High-throughput quantification of nuclear Arc immunofluorescence signal was performed in a similar fashion than the low-throughput procedure described above but with the exception that acetyl-H3K9 was used as a nuclear mask to guide the automated quantification of nuclear Arc immunofluorescence signal.

For the next series, the system named is surface GluA1. Put plainly: Surface AMPAR (GluA1) imaging along dendrites. Format: cell-based, mouse. Conditions: 16.7 µM, 6 h with BDNF, vs untreated and BDNF alone; for BDNF: BDNF alone vs baseline. As for the experimental part:
Our procedure to label surface AMPARs containing the GluA1 subunit was adapted from two reports[14],[61]. Precisely, DIV14 primary cortical neurons cultured on coverslips were rinsed once with room temperature PBS^MC (PBS containing 0.5 mM CaCl2, 1 mM MgCl2, and 4% sucrose). Live cells were then incubated for 30 min at room temperature with GluA1 primary antibody solution (PBS^MC with antibody against the extracellular N-terminus of GluA1 (EMD Millipore Corp, clone RH95, 5.0 µg ml^−1)). Next, cells were rinsed twice with ice-cold PBS^MC followed by fixation with 4% paraformaldehyde + 4% sucrose solution for 15 min at room temperature. After fixation, neurons were washed with regular PBS and then incubated overnight with Map2 primary antibody solution (PBS with 0.125% Triton X-100, 5% normal goat serum, and anti-Map2 antibody) to label dendrites. Next day, coverslips were washed with PBS, incubated with appropriate secondary antibodies for 1 h at room temperature, and finally mounted on glass slides with ProLong Antifade reagent (Invitrogen).
as §1

Another series relates to eIF4E phosphorylation. Put plainly: Western blot of phospho-eIF4E in primary cortical neurons. Conditions: CGP 57380 5 µM co-treated 6 h with BDNF. The class given is cell-based, mouse. As for the experimental part: For western blot analyses, cells were collected by scraping in ice-cold radioimmunoprecipitation assay (RIPA) buffer (50 mM Tris-HCl (pH 8.0), 300 mM NaCl, 0.5% Igepal-630, 0.5% deoxycholic acid, 0.1% SDS, 1 mM EDTA) supplemented with a cocktail of protease inhibitors (Complete Protease Inhibitor without EDTA, Roche Applied Science, Indianapolis, IN) and phosphatase inhibitors (phosphatase inhibitor cocktail A, Santa Cruz Biotechnology). One volume of 2× Laemmli buffer (100 mM Tris-HCl (pH 6.8), 4% SDS, 0.15% bromophenol blue, 20% glycerol, 200 mM β-mercaptoethanol) was added and the extracts were boiled for 5 min. Samples were adjusted to an equal concentration after protein concentrations were determined using the BCA assay (Pierce, Thermo Fisher Scientific). Lysates were separated using SDS–PAGE and transferred to a nitrocellulose membrane. After transfer, the membrane was blocked in TBST (Tris-buffered saline + 0.1% Tween 20) supplemented with 5% nonfat powdered milk and probed with the indicated primary antibody at 4 °C overnight. After washing with TBST, the membrane was incubated with the appropriate secondary antibody and visualized using enhanced chemiluminescence (ECL) reagents according to the manufacturer’s guidelines (Pierce, Thermo Fisher Scientific). Uncropped scans with molecular weight reference are shown in Supplementary Figs. 10–20.

Series [5] has as its system Neuro2a cells. Put plainly: Polyubiquitination of WT and mutant Arc-Myc-FLAG (IP/western) in Neuro2a cells. Conditions: MG132 10 µM for 20 min. The class given is cell-based, mouse. The source says:
To assess polyubiquitination of Arc in DIV13 primary cortical neurons, Arc was immunopurified from total lysates using an agarose-conjugated anti-Arc monoclonal antibody (Santa Cruz Biotechnology, clone C-7). Overexpressed WT and mutant Arc-Myc-FLAG in Neuro2a cells were immunopurified from total lysates with anti-FLAG M2 antibody conjugated to magnetic beads (Sigma-Aldrich, M8823). Immunopurified materials were separated using SDS–PAGE and electrophoretically transferred to a nitrocellulose membrane. To enhance the immunodetection of ubiquitin conjugated to Arc, the nitrocellulose membrane was placed between two layers of Whatman filter paper, submerged in distilled water, and autoclaved for 30 min. After autoclaving, the membrane was blocked in blocking solution (TBST supplemented with 5% milk) for 30 min and incubated overnight with an antibody recognizing ubiquitin (Santa Cruz Biotechnology, clone P4D1, 1:200) in blocking solution. Subsequent steps were carried out according to the western blot procedure described above.

The subject of series [6] is Neuro2a cells. Conditions: for Fold-change to WT: protein half-life in Neuro2a. The source says: Next, we aimed to determine whether the K24, K33, K55, and K70 residues participate in Arc protein turnover. […] We also included K70 in this experiment because of its position in the coiled-coil and nuclear retention domains of Arc (Fig. 5e) as well as its relative proximity to K55. For this test, we used site-directed mutagenesis to generate plasmids that would allow overexpression of an acetyl-mimic/unmodifiable mutant Arc-Myc-FLAG protein (lysine (K) to glutamine (Q) mutant) for each of these four sites. After transfecting sets of Neuro2a cells with these different constructs, we inhibited translation with CHX and monitored overexpressed protein levels for up to 6 h after.
Lysates were collected at the indicated time points and Arc-Myc-FLAG protein level analyzed in every sample by western blotting with an anti-FLAG antibody. Representative western blots are presented on top and quantification of data normalized to corresponding β-actin and presented as percentage of Arc-Myc-FLAG level (±SEM) at the initial time point after CHX application (t = 0). Curve represents exponential decay fit. b Estimate of protein half-life Arc for WT Arc-Myc-FLAG and each acetyl-mimic mutant is presented in table. c WT and acetyl-mutant Arc-Myc-FLAG polyubiquitination was determined in lysates from overexpressing Neuro2a cells. Lysates were immunoprecipitated with anti-FLAG and western blotted with anti-Ub or anti-Arc as indicated.
Neuro2A cells were cultured in DMEM (supplemented with 10% fetal bovine serum (Gemini-Bio-Products, West Sacramento, CA), penicillin (50 units ml^−1), and streptomycin (50 µg ml^−1)) and transfected overnight using Lipofectamine 2000 (Invitrogen) according to the manufacturer’s protocol. The Neuro2A cell line was generously shared by Dr. Grace Gill.
The pCMV6-Arc-Myc-DDK (FLAG) plasmid (MR206218) was purchased from OriGene Biotechnologies (Rockville, MD). The Arc-Myc-FLAG K24Q, K24R, K33Q, K55Q, K70Q, and K70R plasmids were generated with the help of the Q5 Site-Directed Mutagenesis Kit from New England BioLabs (Ipswich, MA) using WT pCMV6-Arc-Myc-FLAG as template. All constructs were verified by DNA sequencing.

Take oxamflatin: the “Arc protein half-life (regression analysis)” value in the series on Arc protein [1] was ~ 112 min. Moreover, in series [2], the “number of Arc puncta in dendritic projections” value was “significantly greater number of Arc puncta”. In [3], the “Percentage of cell with nuclear Arc immunostaining above 2σ threshold” value is 50.0%. Moreover, in [3] (16.7 µM, three biological replicates), the “rank among potentiators of BDNF-induced nuclear Arc expression in screen” value is on record as “second”. In series [3] (nuclear Arc-positive cells relative to DMSO + BDNF control, negative values = decrease), the “Fold-change — Normalized to DMSO control (BDNF)” value is on record as 2.6 fold. Moreover, in the series with Arc protein [4] (BDNF 6 h supplemented with compound), the “total Arc protein vs BDNF plus vehicle control (western blot, Arc/β-actin)” value is on record as “significantly more Arc protein”. Moreover, the “impact on acetyl-H3K9 immunofluorescence (Z-score)” value in the series with acetyl-H3K9 is “strong impact”. Besides, in the series on surface GluA1, the “surface GluA1 puncta per dendrite µm” value is recorded as “significant decrease in surface GluA1 levels”.
As for `Nc1ncnc2n[nH]c(Nc3ccc(F)cc3)c12` [CGP 57380], the “effect on eIF4E phosphorylation” value in the series with eIF4E phosphorylation is “impacting eukaryotic translation initiation factor 4E (eIF4E) phosphorylation”. Besides, the “effect on BDNF-induced Arc expression (western blot)” value in the series with Arc protein [4] (CGP 57380 5 µM co-treated 6 h with BDNF) is given as “did not prevent Arc expression”.

B1: K24Q: acetyl-mimic/unmodifiable mutant Arc-Myc-FLAG, lysine 24 to glutamine (protein, UniProt Q9WV31 1-396, looked up, variant K24Q)
Activity-regulated …: MELDHMTTGGLHAYPAPRGGPAAQPNVILQIGKCRAEMLEHVRRTHRHLLTEVSKQVERELKGLHRSVGKLENNLDGYVPTGDSQRWKKSIKACLCRCQETIANLERWVKREMHVWREVFYRLERWADRLESMGGKYPVGSEPARHTVSVGVGGPEPYCQEADGYDYTVSPYAITPPPAAGELPEQESVEAQQYQSWGPGEDGQPSPGVDTQIFEDPREFLSHLEEYLRQVGGSEEYWLSQIQNHMNGPAKKWWEFKQGSVKNWVEFKKEFLQYSEGTLSREAIQRELELPQKQGEPLDQFLWRKRDLYQTLYVDAEEEEIIQYVVGTLQPKLKRFLRHPLPKTLEQLIQRGMEVQDGLEQAAEPSGTPLPTEDETEALTPALTSESVASDRTQPE
modifications: Myc-FLAG tag
notes: acetyl-mimic/unmodifiable mutant Arc-Myc-FLAG, lysine 24 to glutamine
With B1, the “polyubiquitination of Arc-Myc-FLAG mutant” value in the series on Neuro2a cells [5] is on record as “noticeable decrease in polyubiquitination”. In the series on Neuro2a cells [6], the “Estimated t½” value was 6.66 h and the “Fold-change to WT” value was 2.40.

B2: K70Q: acetyl-mimic/unmodifiable mutant Arc-Myc-FLAG, lysine 70 to glutamine (protein, UniProt Q9WV31 1-396, looked up, variant K70Q)
Activity-regulated …: B1 Activity-regulated … with Q24K, K70Q
modifications: Myc-FLAG tag
notes: acetyl-mimic/unmodifiable mutant Arc-Myc-FLAG, lysine 70 to glutamine
Regarding B2, the “polyubiquitination of Arc-Myc-FLAG mutant” value in the series on Neuro2a cells [5] was “noticeable decrease in polyubiquitination”. In addition, in the series on Neuro2a cells [6], the “Estimated t½” value was 6.15 h and the “Fold-change to WT” value was found to be 2.22.
